From ChEMBL document CHEMBL3714716, “Modulators of the relaxin receptor 1” (2015)
The source made the active and inactive calls. The rule behind the calls is not given here.

Experiments:
[1] = target: T1, Relaxin receptor 1 (Mus musculus) (UniProt Q6R6I7); test: Agonist activity at mouse RXFP1 receptor M11 Asp659Gly and Ser660Thr mutant expressed in HEK293 cells assessed as stimulation of cAMP production at 66 uM incubated for 30 mins by TR-FRET based HTRF assay relative to relaxin; type: functional, cell-based; parameters: scale not given: the % may be the effect or the level left
T1 sequence (whole entry): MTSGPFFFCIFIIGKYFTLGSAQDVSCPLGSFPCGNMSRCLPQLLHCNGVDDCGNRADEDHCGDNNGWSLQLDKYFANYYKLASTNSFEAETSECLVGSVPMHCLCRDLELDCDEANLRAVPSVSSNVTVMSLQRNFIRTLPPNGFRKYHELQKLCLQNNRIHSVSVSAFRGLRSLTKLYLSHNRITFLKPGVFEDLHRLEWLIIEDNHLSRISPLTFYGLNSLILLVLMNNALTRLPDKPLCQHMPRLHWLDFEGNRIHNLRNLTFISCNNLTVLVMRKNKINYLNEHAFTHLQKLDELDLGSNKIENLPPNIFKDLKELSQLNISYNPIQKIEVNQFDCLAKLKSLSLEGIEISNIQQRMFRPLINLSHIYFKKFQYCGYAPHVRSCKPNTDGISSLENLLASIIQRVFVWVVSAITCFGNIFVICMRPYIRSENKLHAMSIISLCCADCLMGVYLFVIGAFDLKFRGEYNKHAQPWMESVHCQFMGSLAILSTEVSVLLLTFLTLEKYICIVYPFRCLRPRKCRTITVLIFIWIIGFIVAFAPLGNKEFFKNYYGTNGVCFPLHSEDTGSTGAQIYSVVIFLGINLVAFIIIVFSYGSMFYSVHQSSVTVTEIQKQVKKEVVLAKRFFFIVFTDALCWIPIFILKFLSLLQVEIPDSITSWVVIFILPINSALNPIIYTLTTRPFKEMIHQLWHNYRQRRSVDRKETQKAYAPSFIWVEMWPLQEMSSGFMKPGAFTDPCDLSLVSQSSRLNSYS

[2] = Initial plasma concentration in C57/BL6 mouse plasma at 3 mg/kg, iv administered as single dose; type: ADME, organism-based
Heart [3] = test: AUMClast in C57/BL6 mouse heart at 3 mg/kg, iv administered as single dose; type: ADME, organism-based; conditions: in vivo
[4] = target: T1, Relaxin receptor 1 (Mus musculus); test: Agonist activity at mouse RXFP1 receptor M10 Ile646Val and Leu647Val mutant expressed in HEK293 cells assessed as stimulation of cAMP production incubated for 30 mins by TR-FRET based HTRF assay; type: functional, cell-based
Plasma [5] = test: AUMClast in C57/BL6 mouse plasma at 3 mg/kg, iv administered as single dose; type: ADME, organism-based; conditions: in vivo
[6] = target: T1, Relaxin receptor 1 (Mus musculus); test: Agonist activity at mouse RXFP1 receptor expressed in HEK293 cells assessed as stimulation of cAMP production incubated for 30 mins by TR-FRET based HTRF assay; type: functional, cell-based
[7] = target: T2, Uncharacterized protein (Sus scrofa) (UniProt F1RW91); test: Agonist activity at pig RXFP1 receptor assessed as stimulation of cAMP production incubated for 30 mins by TR-FRET based HTRF assay; type: functional
T2 sequence (whole entry): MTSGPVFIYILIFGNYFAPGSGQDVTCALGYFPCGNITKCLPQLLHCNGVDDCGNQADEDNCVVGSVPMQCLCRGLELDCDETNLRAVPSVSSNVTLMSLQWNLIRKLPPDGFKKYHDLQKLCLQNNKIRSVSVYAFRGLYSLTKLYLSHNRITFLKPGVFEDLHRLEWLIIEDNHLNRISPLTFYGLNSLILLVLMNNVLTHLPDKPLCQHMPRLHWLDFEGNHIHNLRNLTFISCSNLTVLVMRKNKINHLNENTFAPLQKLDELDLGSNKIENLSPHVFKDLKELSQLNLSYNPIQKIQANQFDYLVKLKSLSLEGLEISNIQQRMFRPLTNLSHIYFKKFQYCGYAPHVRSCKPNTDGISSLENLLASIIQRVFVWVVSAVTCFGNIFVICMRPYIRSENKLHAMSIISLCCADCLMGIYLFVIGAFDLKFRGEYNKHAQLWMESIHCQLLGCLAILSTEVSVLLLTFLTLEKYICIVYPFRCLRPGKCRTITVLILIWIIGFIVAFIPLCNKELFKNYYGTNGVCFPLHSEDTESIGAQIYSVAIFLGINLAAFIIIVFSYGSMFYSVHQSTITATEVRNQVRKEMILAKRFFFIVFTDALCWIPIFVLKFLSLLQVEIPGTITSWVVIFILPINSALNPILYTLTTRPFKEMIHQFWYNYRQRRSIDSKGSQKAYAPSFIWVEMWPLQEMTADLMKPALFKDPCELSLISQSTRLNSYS

[8] = target: T3, Relaxin receptor 1 (Macaca mulatta) (UniProt I2CTQ4); test: Agonist activity at monkey RXFP1 receptor assessed as stimulation of cAMP production incubated for 30 mins by TR-FRET based HTRF assay; type: functional
T3 sequence (whole entry): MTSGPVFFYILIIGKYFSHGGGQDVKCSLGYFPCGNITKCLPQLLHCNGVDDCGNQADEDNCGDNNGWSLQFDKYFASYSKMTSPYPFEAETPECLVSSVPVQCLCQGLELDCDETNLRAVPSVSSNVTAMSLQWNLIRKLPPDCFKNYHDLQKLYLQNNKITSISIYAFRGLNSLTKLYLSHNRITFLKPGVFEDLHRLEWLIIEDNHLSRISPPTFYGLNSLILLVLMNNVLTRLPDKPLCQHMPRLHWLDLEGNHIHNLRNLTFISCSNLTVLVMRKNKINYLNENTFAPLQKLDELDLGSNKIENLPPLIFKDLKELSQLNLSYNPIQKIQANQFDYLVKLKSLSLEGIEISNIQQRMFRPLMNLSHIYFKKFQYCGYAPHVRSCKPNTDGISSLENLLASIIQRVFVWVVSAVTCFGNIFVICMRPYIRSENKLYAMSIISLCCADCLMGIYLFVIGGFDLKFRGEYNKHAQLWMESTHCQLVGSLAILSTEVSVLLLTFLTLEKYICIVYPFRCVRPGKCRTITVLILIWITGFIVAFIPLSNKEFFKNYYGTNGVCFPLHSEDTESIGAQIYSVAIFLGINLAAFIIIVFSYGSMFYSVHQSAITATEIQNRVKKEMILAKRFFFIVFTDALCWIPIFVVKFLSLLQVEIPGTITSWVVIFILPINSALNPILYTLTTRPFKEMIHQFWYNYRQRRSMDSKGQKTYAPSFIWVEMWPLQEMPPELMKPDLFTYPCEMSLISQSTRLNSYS

Heart [9] = test: AUMClast in C57/BL6 mouse heart at 30 mg/kg, po administered as single dose; type: ADME, organism-based; conditions: in vivo
Plasma [10] = test: AUMClast in C57/BL6 mouse plasma at 30 mg/kg, po administered as single dose; type: ADME, organism-based; conditions: in vivo
[11] = Cmax in C57/BL6 mouse plasma at 30 mg/kg, po administered as single dose; type: ADME, organism-based; parameters: dose 30 mg/kg, route oral
[12] = target: Relaxin receptor 2 (Mus musculus) (UniProt Q91ZZ5); test: Agonist activity at mouse RXFP2 receptor expressed in HEK293 cells assessed as stimulation of cAMP production incubated for 30 mins by TR-FRET based HTRF assay; type: functional, cell-based
Relaxin receptor 2 (Mus musculus), sequence (Q91ZZ5 whole entry): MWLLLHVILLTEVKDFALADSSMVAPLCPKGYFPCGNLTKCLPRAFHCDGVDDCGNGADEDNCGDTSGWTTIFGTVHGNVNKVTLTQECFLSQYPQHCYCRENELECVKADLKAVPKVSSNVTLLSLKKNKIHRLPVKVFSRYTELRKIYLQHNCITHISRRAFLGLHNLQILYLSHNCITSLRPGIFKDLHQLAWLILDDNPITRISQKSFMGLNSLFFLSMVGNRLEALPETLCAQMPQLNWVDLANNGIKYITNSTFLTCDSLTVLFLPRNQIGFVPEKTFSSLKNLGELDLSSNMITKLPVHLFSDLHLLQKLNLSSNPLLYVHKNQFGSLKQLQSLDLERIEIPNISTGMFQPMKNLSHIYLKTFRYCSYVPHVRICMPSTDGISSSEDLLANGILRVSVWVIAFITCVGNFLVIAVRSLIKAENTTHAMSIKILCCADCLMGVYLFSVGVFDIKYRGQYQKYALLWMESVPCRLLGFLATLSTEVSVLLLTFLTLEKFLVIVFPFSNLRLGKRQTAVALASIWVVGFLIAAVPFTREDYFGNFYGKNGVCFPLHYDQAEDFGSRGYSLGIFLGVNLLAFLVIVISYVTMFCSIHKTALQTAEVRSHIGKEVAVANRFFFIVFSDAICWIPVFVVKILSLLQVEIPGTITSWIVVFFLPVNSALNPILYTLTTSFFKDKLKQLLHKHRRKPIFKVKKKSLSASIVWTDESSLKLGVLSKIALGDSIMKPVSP

[13] = Tmax in C57/BL6 mouse heart at 30 mg/kg, po administered as single dose; type: ADME, organism-based
[14] = Tmax in C57/BL6 mouse plasma at 30 mg/kg, po administered as single dose; type: ADME, organism-based

For CC(C)Oc1ccccc1C(=O)Nc1ccccc1C(=O)Nc1cccc(S(=O)(=O)C(F)(F)F)c1, the Activity [1] was 44.4%, the C0 [2] was 499 ng/mL and the AUMClast (Heart [3]) was 28300 hr.hr.ng/ml. The Activity [4] was “inactive”, the AUMClast (Plasma [5]) was 3110 hr.hr.ng/ml and the Activity [6] was “inactive”. The Activity [7] was “Active”, the Activity [8] was “Active” and the AUMClast (Heart [9]) was 5780 hr.hr.ng/ml. The AUMClast (Plasma [10]) was 2990 hr.hr.ng/ml, the Cmax [11] was 306 ng/mL and the Activity [12] was “inactive”. For the same molecule, the Tmax [13] was 1.5 h and the Tmax [14] was 0.5 h.
